# According to ChEMBL document CHEMBL3286148, “Aminoazabenzimidazoles, a novel class of orally active antimalarial agents” (J Med Chem, 2014):
# Legend:
# [1] = Clearance in rat hepatocytes assessed per 1E6 cells; format: ADME, cell-based, Hepatocyte; conditions: read-out: CLH
# [2] = Half life in Wistar rat at 1 mg/kg, iv; format: ADME, organism-based; design: dose 1 mg/kg, route intravenous; conditions: in vivo
# [3] = Selectivity index, ratio of IC50 for human A549 cells to IC50 for Plasmodium falciparum; format: toxicity, cell-based; conditions: read-out: Ratio IC50
# [4] = target: Voltage-gated inwardly rectifying potassium channel KCNH2 (Homo sapiens, UniProt Q12809); assay: Inhibition of human ERG
# Mus musculus [5] = assay: Dose normalized AUC (0 to 23 hrs) in Plasmodium falciparum 3D70087/N9 infected NODscidIL2Rgamma-null mouse at 3 mg/kg, po by LC-MS/MS analysis; format: ADME, organism-based; design: dose 3 mg/kg, route oral; conditions: in vivo
# Cytochrome P450 2D6 = Cytochrome P450 2D6 (Homo sapiens, UniProt P10635); assay: Inhibition of CYP2D6 (unknown origin); format: ADME
# [6] = AUC (0 to 23 hrs) in Plasmodium falciparum 3D70087/N9 infected NODscidIL2Rgamma-null mouse at 50 mg/kg, po by LC-MS/MS analysis; format: ADME, organism-based; design: time < 23 hr, dose 50 mg/kg, route oral; conditions: plasma
# Mus musculus [7] = assay: AUC at ED90 in po dosed Plasmodium falciparum 3D70087/N9 infected NODscidIL2Rgamma-null mouse after 7 days; format: ADME, organism-based, Plasma; conditions: in vivo, 168 h
# Plasmodium falciparum [8] = assay: microbe, parasite or virus in culture; conditions: K1, 72 h
# [9] = Cmax in Plasmodium falciparum 3D70087/N9 infected NODscidIL2Rgamma-null mouse at 50 mg/kg, po by LC-MS/MS analysis; format: ADME, organism-based; design: dose 50 mg/kg, route oral; conditions: in vivo
# [10] = Cmax in Plasmodium falciparum 3D70087/N9 infected NODscidIL2Rgamma-null mouse at 10 mg/kg, po by LC-MS/MS analysis; format: ADME, organism-based; design: dose 10 mg/kg, route oral; conditions: in vivo
# Mus musculus [11] = assay: AUC (0 to 23 hrs) in Plasmodium falciparum 3D70087/N9 infected NODscidIL2Rgamma-null mouse at 30 mg/kg, po by LC-MS/MS analysis; conditions: in vivo
# Cytochrome P450 2C9 = Cytochrome P450 2C9 (Homo sapiens, UniProt P11712); assay: Inhibition of CYP2C9 (unknown origin); format: ADME
# Cytochrome P450 2C19 = Cytochrome P450 2C19 (Homo sapiens, UniProt P33261); assay: Inhibition of CYP2C19 (unknown origin); format: ADME
# [12] = Tmax in Plasmodium falciparum 3D70087/N9 infected NODscidIL2Rgamma-null mouse at 50 mg/kg, po by LC-MS/MS analysis; format: ADME, organism-based; design: dose 50 mg/kg, route oral; conditions: in vivo
# Cytochrome P450 1A2 = target: T1, Cytochrome P450 1A2 (Homo sapiens, UniProt P05177); assay: Inhibition of CYP1A2 (unknown origin); format: ADME
# T1 sequence (P05177 whole entry): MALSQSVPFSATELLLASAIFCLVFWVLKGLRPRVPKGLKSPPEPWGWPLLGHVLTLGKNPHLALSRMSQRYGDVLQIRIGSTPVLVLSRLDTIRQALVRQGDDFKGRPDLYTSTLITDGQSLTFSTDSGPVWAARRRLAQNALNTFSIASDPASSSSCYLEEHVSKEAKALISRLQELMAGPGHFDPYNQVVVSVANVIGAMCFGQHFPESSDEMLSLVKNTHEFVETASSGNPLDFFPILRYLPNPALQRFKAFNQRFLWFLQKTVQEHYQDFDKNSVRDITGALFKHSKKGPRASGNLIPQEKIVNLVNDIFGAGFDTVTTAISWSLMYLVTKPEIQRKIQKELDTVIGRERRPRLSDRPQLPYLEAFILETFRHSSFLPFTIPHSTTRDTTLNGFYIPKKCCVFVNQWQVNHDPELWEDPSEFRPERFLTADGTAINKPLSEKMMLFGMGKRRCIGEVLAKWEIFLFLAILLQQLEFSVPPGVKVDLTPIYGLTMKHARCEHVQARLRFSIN
# Mus musculus [13] = assay: Dose normalized Cmax in Plasmodium falciparum 3D70087/N9 infected NODscidIL2Rgamma-null mouse at 3 mg/kg, po by LC-MS/MS analysis; format: ADME, organism-based; design: dose 3 mg/kg, route oral; conditions: in vivo
# [14] = Clearance in mouse liver microsomes; format: ADME; conditions: read-out: CLH
# [15] = AUC (0 to 23 hrs) in Plasmodium falciparum 3D70087/N9 infected NODscidIL2Rgamma-null mouse at 30 mg/kg, po by LC-MS/MS analysis; format: ADME, organism-based; design: time < 23 hr, dose 30 mg/kg, route oral; conditions: plasma
# [16] = Tmax in Plasmodium falciparum 3D70087/N9 infected NODscidIL2Rgamma-null mouse at 10 mg/kg, po by LC-MS/MS analysis; format: ADME, organism-based; design: dose 10 mg/kg, route oral; conditions: in vivo
# Mus musculus [17] = assay: AUC (0 to 23 hrs) in Plasmodium falciparum 3D70087/N9 infected NODscidIL2Rgamma-null mouse at 10 mg/kg, po by LC-MS/MS analysis; conditions: in vivo
# Mus musculus [18] = assay: Dose normalized Cmax in Plasmodium falciparum 3D70087/N9 infected NODscidIL2Rgamma-null mouse at 30 mg/kg, po by LC-MS/MS analysis; format: ADME, organism-based; design: dose 30 mg/kg, route oral; conditions: in vivo
# [19] = AUC (0 to 23 hrs) in Plasmodium falciparum 3D70087/N9 infected NODscidIL2Rgamma-null mouse at 10 mg/kg, po by LC-MS/MS analysis; format: ADME, organism-based; design: time < 23 hr, dose 10 mg/kg, route oral; conditions: plasma
# Cytochrome P450 3A4 = Cytochrome P450 3A4 (Homo sapiens, UniProt P08684); assay: Inhibition of CYP3A4 (unknown origin); format: ADME
# Mus musculus [20] = assay: AUC (0 to 23 hrs) in Plasmodium falciparum 3D70087/N9 infected NODscidIL2Rgamma-null mouse at 50 mg/kg, po by LC-MS/MS analysis; conditions: in vivo
# [21] = Fraction unbound in human plasma; format: ADME, cell-free
# [22] = Clearance in Wistar rat at 1 mg/kg, iv; format: ADME, organism-based; design: dose 1 mg/kg, route intravenous; conditions: in vivo
# [23] = Half life in Wistar rat at 5 mg/kg, po; format: ADME, organism-based; design: dose 5 mg/kg, route oral; conditions: in vivo
# Plasmodium falciparum [24] = assay: microbe, parasite or virus in culture; conditions: NF54, 72 h
# Mus musculus [25] = assay: Dose normalized Cmax in Plasmodium falciparum 3D70087/N9 infected NODscidIL2Rgamma-null mouse at 50 mg/kg, po by LC-MS/MS analysis; format: ADME, organism-based; design: dose 50 mg/kg, route oral; conditions: in vivo
# [26] = Cmax in Wistar rat at 5 mg/kg, po; format: ADME, organism-based; design: dose 5 mg/kg, route oral; conditions: in vivo
# [27] = AUC (0 to 23 hrs) in Plasmodium falciparum 3D70087/N9 infected NODscidIL2Rgamma-null mouse at 3 mg/kg, po by LC-MS/MS analysis; format: ADME, organism-based; design: time < 23 hr, dose 3 mg/kg, route oral; conditions: plasma
# Mus musculus [28] = assay: Dose normalized Cmax in Plasmodium falciparum 3D70087/N9 infected NODscidIL2Rgamma-null mouse at 10 mg/kg, po by LC-MS/MS analysis; format: ADME, organism-based; design: dose 10 mg/kg, route oral; conditions: in vivo
# [29] = Oral bioavailability in Wistar rat at 5 mg/kg; format: ADME, organism-based; conditions: in vivo
# [30] = Lipophilicity, log D of the compound; format: physicochemical; conditions: octanol/water
# [31] = AUC in Wistar rat at 1 mg/kg, iv; format: ADME, organism-based; design: dose 1 mg/kg, route intravenous; conditions: plasma
# [32] = Volume of distribution at steady state in Wistar rat at 1 mg/kg, iv; format: ADME, organism-based; design: dose 1 mg/kg, route intravenous; conditions: in vivo, read-out: Vdss
# [33] = Tmax in Plasmodium falciparum 3D70087/N9 infected NODscidIL2Rgamma-null mouse at 30 mg/kg, po by LC-MS/MS analysis; format: ADME, organism-based; design: dose 30 mg/kg, route oral; conditions: in vivo
# [34] = Cmax in Plasmodium falciparum 3D70087/N9 infected NODscidIL2Rgamma-null mouse at 3 mg/kg, po by LC-MS/MS analysis; format: ADME, organism-based; design: dose 3 mg/kg, route oral; conditions: in vivo
# [35] = Tmax in Plasmodium falciparum 3D70087/N9 infected NODscidIL2Rgamma-null mouse at 3 mg/kg, po by LC-MS/MS analysis; format: ADME, organism-based; design: dose 3 mg/kg, route oral; conditions: in vivo
# [36] = Clearance in human liver microsomes; format: ADME; conditions: read-out: CLH
# Plasmodium berghei [37] = assay: Antiplasmodial activity against Plasmodium berghei ANKA expressing GFP infected in BALB/c mouse assessed as reduction of viable parasites at 50 mg/kg, po qd for 4 days by flow cytometry; format: functional
# Plasmodium falciparum [38] = assay: Antiplasmodial activity against Plasmodium falciparum 3D70087/N9 infected in po dosed NODscidIL2Rgamma-null mouse assessed as reduction of parasite level in peripheral blood qd for 4 days by flow cytometry analysis; format: functional; conditions: 96 h
# [39] = Aqueous solubility of the compound; format: physicochemical; conditions: buffer
# [40] = Cmax in Plasmodium falciparum 3D70087/N9 infected NODscidIL2Rgamma-null mouse at 30 mg/kg, po by LC-MS/MS analysis; format: ADME, organism-based; design: dose 30 mg/kg, route oral; conditions: in vivo
# Plasmodium berghei [41] = assay: Antiplasmodial activity against Plasmodium berghei ANKA expressing GFP infected in BALB/c mouse assessed as host survival days at 50 mg/kg, po qd for 4 days; format: functional
# Plasmodium berghei [42] = assay: Antiplasmodial activity against Plasmodium berghei ANKA expressing GFP infected in BALB/c mouse assessed as host survival days at 30 mg/kg, po qd for 4 days; format: functional
# Chain of Cytochrome P450 3A4 (P08684 whole entry): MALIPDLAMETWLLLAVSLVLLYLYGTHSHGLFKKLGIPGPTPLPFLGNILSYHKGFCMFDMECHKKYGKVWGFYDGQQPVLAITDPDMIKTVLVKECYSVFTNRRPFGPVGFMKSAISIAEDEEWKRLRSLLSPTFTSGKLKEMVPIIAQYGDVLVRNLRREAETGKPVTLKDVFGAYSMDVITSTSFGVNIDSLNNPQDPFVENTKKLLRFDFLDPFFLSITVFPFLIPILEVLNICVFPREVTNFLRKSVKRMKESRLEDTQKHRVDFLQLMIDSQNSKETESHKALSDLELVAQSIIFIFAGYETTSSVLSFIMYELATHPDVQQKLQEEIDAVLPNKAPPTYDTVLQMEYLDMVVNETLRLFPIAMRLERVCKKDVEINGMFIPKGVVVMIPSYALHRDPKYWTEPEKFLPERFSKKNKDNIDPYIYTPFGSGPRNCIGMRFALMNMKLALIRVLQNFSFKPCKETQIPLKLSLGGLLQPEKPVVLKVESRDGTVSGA
# Chain of Cytochrome P450 2C9 (P11712 whole entry): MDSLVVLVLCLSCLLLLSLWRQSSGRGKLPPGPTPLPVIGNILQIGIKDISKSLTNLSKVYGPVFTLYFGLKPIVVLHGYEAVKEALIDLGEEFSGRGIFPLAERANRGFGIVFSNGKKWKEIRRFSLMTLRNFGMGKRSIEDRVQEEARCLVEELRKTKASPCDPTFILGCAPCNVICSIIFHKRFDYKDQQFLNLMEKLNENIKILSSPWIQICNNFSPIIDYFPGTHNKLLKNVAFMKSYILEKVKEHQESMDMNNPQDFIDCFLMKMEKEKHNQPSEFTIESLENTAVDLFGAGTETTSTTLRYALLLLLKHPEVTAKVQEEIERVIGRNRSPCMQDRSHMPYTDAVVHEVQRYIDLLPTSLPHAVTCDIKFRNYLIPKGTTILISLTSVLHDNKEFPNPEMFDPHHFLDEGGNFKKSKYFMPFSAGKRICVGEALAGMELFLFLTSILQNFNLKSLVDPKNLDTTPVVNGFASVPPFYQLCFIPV
# Chain of Cytochrome P450 2C19 (P33261 whole entry): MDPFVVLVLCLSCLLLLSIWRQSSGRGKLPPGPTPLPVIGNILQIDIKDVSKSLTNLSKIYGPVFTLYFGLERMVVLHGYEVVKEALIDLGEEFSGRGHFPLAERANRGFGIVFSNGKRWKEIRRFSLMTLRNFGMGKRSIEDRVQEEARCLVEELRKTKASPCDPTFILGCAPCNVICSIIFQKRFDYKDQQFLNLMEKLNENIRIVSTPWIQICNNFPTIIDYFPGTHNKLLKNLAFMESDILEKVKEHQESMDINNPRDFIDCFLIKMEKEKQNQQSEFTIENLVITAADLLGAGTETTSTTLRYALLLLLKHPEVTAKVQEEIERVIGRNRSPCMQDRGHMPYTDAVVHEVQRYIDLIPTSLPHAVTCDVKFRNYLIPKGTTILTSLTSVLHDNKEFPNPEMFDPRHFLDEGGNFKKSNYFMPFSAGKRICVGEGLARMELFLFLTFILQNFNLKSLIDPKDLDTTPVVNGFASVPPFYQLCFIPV
# Chain of Voltage-gated inwardly rectifying potassium channel KCNH2 (Q12809 whole entry): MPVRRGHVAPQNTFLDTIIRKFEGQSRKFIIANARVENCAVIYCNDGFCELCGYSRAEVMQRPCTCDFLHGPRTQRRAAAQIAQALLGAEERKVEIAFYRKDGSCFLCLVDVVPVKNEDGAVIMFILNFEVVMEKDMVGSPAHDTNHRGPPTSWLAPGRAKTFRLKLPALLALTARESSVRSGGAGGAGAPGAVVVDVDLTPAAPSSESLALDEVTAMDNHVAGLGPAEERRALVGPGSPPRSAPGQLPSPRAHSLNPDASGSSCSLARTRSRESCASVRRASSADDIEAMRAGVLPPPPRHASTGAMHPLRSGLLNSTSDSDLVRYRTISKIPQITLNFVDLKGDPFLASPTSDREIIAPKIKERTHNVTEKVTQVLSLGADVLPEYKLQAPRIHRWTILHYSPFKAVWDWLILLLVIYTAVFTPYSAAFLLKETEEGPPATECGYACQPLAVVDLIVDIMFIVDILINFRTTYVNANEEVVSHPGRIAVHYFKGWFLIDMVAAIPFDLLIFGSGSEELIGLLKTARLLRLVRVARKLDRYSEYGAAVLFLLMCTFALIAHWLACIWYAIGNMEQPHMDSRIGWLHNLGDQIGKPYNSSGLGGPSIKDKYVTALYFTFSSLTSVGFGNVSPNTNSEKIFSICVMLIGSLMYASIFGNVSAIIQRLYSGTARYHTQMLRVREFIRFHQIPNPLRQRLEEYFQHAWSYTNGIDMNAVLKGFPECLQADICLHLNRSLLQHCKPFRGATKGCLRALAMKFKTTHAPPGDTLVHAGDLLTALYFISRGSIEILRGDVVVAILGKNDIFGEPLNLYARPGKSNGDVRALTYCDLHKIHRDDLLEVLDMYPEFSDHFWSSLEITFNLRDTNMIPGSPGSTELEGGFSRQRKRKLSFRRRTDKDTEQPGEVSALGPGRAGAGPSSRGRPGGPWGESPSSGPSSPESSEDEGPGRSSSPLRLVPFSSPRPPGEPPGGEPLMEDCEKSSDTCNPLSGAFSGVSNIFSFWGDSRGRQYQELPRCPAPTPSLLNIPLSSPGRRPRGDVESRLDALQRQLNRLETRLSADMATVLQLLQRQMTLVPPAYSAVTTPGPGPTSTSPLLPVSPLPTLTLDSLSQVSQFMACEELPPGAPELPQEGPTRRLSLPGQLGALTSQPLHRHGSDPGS
# Chain of Cytochrome P450 2D6 (P10635 whole entry): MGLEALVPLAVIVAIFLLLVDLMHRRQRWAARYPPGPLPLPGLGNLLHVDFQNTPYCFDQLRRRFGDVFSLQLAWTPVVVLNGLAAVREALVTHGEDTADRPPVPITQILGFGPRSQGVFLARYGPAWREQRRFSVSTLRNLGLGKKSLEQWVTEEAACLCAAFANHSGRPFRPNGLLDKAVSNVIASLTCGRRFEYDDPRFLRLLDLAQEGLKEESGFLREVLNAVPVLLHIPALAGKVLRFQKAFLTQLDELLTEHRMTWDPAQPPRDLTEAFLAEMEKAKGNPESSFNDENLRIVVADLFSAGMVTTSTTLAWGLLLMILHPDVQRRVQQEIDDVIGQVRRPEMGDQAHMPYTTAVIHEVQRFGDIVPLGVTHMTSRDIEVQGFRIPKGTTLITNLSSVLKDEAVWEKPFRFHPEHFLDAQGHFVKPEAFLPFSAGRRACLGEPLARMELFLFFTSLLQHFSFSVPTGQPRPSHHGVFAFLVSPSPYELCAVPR
compound,measurement,setting,value
CC(Oc1ccc2nc(N)n(CC(O)c3ccc(C(F)(F)F)cc3Cl)c2n1)C(F)(F)F (racemic),hepatocyte CLint,[1],43 µL/min/1e6 cells
same,half-life,[2],1.76 h
same,selectivity ratio,[3],> 325
same,IC50,[4],> 33.3 µM
same,AUC/dose,Mus musculus [5],0.16 µg·h/mL/mg/kg
same,IC50,Cytochrome P450 2D6,28.3 µM
same,AUC(0-t) at 23 h,[6],10400 ng·h/mL
same,AUC,Mus musculus [7],6.55 ug.hr/ml/day
same,IC50,Plasmodium falciparum [8],0.005 µM
same,Cmax,[9],1070 ng/mL
same,Cmax,[10],360 ng/mL
same,AUC,Mus musculus [11],2310 ng·h/mL
same,IC50,Cytochrome P450 2C9,22.9 µM
same,IC50,Cytochrome P450 2C19,4.7 µM
same,Tmax,[12],4 h
same,IC50,Cytochrome P450 1A2,> 30 µM
same,Cmax/dose,Mus musculus [13],0.019 µg/mL/mg/kg
same,microsomal CLint,[14],19 µL/min/mg
same,AUC(0-t) at 23 h,[15],6930 ng·h/mL
same,Tmax,[16],2 h
same,AUC,Mus musculus [17],900 ng·h/mL
same,Cmax/dose,Mus musculus [18],0.022 µg/mL/mg/kg
same,AUC(0-t) at 23 h,[19],2700 ng·h/mL
same,IC50,Cytochrome P450 3A4,20.3 µM
same,AUC,Mus musculus [20],3480 ng·h/mL
same,fraction unbound,[21],< 0.01
same,clearance,[22],22.6 mL/min/kg
same,half-life,[23],7.16 h
same,IC50,Plasmodium falciparum [24],0.04 µM
same,Cmax/dose,Mus musculus [25],0.021 µg/mL/mg/kg
same,Cmax,[26],2040 nM
same,AUC(0-t) at 23 h,[27],480 ng·h/mL
same,Cmax/dose,Mus musculus [28],0.035 µg/mL/mg/kg
same,bioavailability,[29],100%
same,logD,[30],> 4.5
same,AUC,[31],1.66 µM·h
same,Vd,[32],2.49 L/kg
same,Tmax,[33],6 h
same,Cmax,[34],600 ng/mL
same,Tmax,[35],0.5 h
same,microsomal CLint,[36],32 µL/min/mg
same,Activity,Plasmodium berghei [37],94%
same,ED90,Plasmodium falciparum [38],28.6 mg/kg
same,solubility,[39],5 µM
same,Cmax,[40],680 ng/mL
same,Survival,Plasmodium berghei [41],12 days
CCN(CC)CCCC(C)Nc1ccnc2cc(Cl)ccc12 (configuration not stated) [CHLOROQUINE],Survival,Plasmodium berghei [42],27 days
